Measurements: patent publication US7642320B2, “Polymer additives with improved permanence and surface affinity” (Ciba Specialty Chemicals Corporation, priority 2001, dated 2010)

Assay: Solubility in polar media (methanol, ambient temperature)
Assay type: physicochemical

For `CCC(C)(C)c1cc(-n2nc3ccccc3n2)c(O)c(C(C)(C)CC)c1` [Tinuvin ® 328], the “Solubility in methanol (wt %)” value was 0.6 wt %.
